# Assay: skin sensitization test (LLNA, Local Lymph Node Assay, OECD test guideline 429), Stimulation Index
# Assay type: in vivo
# Conditions: SI less than 3 judged negative
# From the text: As described in literatures (for example, “Functional Material” (Kino Zairyou) 2005, September, Vol. 25, No. 9, p. 55), the compound having a Stimulation Index (SI value) of less than 3, where the Stimulation Index indicates the extent of skin sensitization, is judged as being negative for skin sensitization. […] The lower SI value means lower skin sensitization. […] The SI value of the monomer or the oligomer used is preferably 2 or lower, more preferably 1.6 or lower.
# The description “negative” or “none” is equivalent to the SI value of less than 3.
row,Compound,SI value (Stimulation Index)
1,"C=C(C)C(=O)OCC(C)(C)COC(=O)C(=C)C [Example A1, Neopentyl glycol dimethacrylate]",2.0
2,"C=C(C)C(=O)OCC(CC)(COC(=O)C(=C)C)COC(=O)C(=C)C [Example A5, Trimethylolpropane trimethacrylate]",1.9
3,"C=CC(=O)OCCCCCCCCCCCCCCCCCC [Example A12, Stearyl acrylate]",2.7
4,"C=C(C)C(=O)OCCCCOC(=O)C(=C)C [Example A13, 1,4-Butanediol dimethacrylate]",2.6
5,"C=CC(=O)OCCCCCCCCCCCCCCCC(C)C [Example A19, Isostearyl acrylate]",1.4
6,"C=C(C)C(=O)OCCCCCCCCCCCCCCCCCC [Example A21, Stearyl methacrylate]",1.2
7,Polyethoxylated tetramethylolmethane tetraacrylate [Example A9],1.7
8,Polyethylene glycol dimethacrylate represented by General Formula (1) (n is nearly equal to 2) [Example A23],1.1
9,Polyethylene glycol dimethacrylate represented by General Formula (1) (n is nearly equal to 14) [Example A3],1.6
10,Polyethylene glycol dimethacrylate represented by the following General Formula (1) (n is nearly equal to 9) [Example A2],1.3
11,"Polypropylene glycol diacrylate [Example A14, Polypropylene glycol diacrylate [CH2═CH—CO—(OC3H6)n—OCOCH═CH2 (n is nearly equal to 12)]]",1.5
12,Tricyclodecanedimethanol dimethacrylate [Example A6],1.3
13,γ-Butyrolactone methacrylate [Example A4],2.1

# Assay: not given
# Conditions: MSDS; equivalent to SI value of less than 3; cited from earlier work
row,Compound,skin sensitization evaluated in MSDS
1,Caprolactone-modified dipentaerythritol hexaacrylate [Example A7],negative

# Same assay, conditions: literature; equivalent to SI value of less than 3; cited from earlier work
row,Compound,skin sensitization evaluated in literature
1,"C=C(C)C(=O)OC(C)(C)C [Example A15, t-Butyl methacrylate]",negative
2,"C=C(C)C(=O)OCCCCC [Example A16, n-Pentyl methacrylate]",negative
3,"C=C(C)C(=O)OCCCCCC [Example A17, n-Hexyl methacrylate]",negative

# — patent US9493663B2, “Photopolymerizable inkjet ink, ink cartridge, and printer” (RICOH COMPANY, LTD., priority 2011, dated 2016)
